Test results taken from patent publication EP2974743B1, “CYCLODEXTRIN CARRIER-BASED ARTEANNUIN COMPOUND CONJUGATE AND PREPARING METHOD THEREOF” (KPC Pharmaceuticals, Inc., priority 2012, dated 2014).

Key:
HCT116 = experiment: MTT assay, tumor cell growth inhibition; assay type: cell-based; settings: human rectal cancer cells HCT116, 48h culture with compound
Experimental: (§1) For example, 180 µl suspension of human rectal cancer cells HCT116, Lovo, SW480 and HT29 (at a concentration of 4×10^4/mL) was added to a 96 well plate, and pre-cultured under 5% CO2, 37°C and saturated moisture for 24h. 150 µl medium was replaced, and 20 µl medium containing molecular assembly at different concentrations was added. The cells were cultured for another 48h, with the medium free of a sample as a negative control, and a medium containing camptothecin, oxaliplatin or fluorouracil at different concentrations as positive controls. MTT assay was used to determine the OD value, and the growth inhibition rate was calculated. The inhibition of compounds at high, medium and low concentration on the tumor cell proliferation was observed. All the experiments above were performed in triplet. The results of in vitro experiment of the arteannuin cyclodextrin conjugate on human rectum and caecum cancer cell are shown in table 1. Table 1. The comparison of IC50 values (µM) for the cyclodextrin carrier-based arteannuinoid compound conjugate according to the present disclosure and some arteannuinoid compounds in several rectal cancer cells.

HT 90 = experiment: MTT assay, tumor cell growth inhibition; assay type: cell-based; settings: human rectal cancer cells HT 90 (text: HT29), 48h culture with compound
Experimental: as §1

Lovo = experiment: MTT assay, tumor cell growth inhibition; assay type: cell-based; settings: human rectal cancer cells Lovo, 48h culture with compound
Experimental: as §1

SW480 = experiment: MTT assay, tumor cell growth inhibition; assay type: cell-based; settings: human rectal cancer cells SW480, 48h culture with compound
Experimental: as §1

solubility in water = assay type: physicochemical; settings: in words
Description: Also, the cyclodextrin carrier-based arteannuinoid compound is absorbed in merely a small amount when passing through stomach and small intestine of a human body, which is mainly absorbed by the large intestine, with a property of releasing in straight cecum. Therefore, the cyclodextrin carrier-based arteannuinoid compound according to the present disclosure can effectively enter the body of a patient, improving the bioavailability.

[1] = tested on: mouse hepatocarcinoma H22; settings: 300 mg/kg by gavage; cited from earlier work

Row | Compound | IC50 (HCT116) | IC50 (HT 90) | IC50 (Lovo) | IC50 (SW480) | solubility in water (solubility in water) | anti-tumor rate [1]
1 | mono-6-artesunate-β-cyclodextrin conjugate [Example 1] | 0.84 µM | 5.3 µM | 0.72 µM | 3.92 µM |  | 
2 | C[C@H]1[C@H](OC(=O)CCC(=O)O)O[C@@H]2O[C@@]3(C)CC[C@H]4[C@H](C)CC[C@@H]1[C@@]24OO3 [artesunate] |  |  |  |  | almost insoluble in water | above 40%
